Test results as given in US5116851A, “Pharmaceutical composition and method for treating cardiovascular diseases using substituted anilides and sulfonamides” (E. R. Squibb & Sons, Inc., priority 1990, dated 1992).
pIC50: −log10 of the molar value.

What was measured:
[1] = test system: Ischemic and Nonischemic Isolated Rat Heart; experiment: Isolated perfused rat heart (Langendorff), global ischemia/reperfusion: cardiac function, flow and LDH release; set-up: species or system rat (male Sprague-Dawley); FLOW (coronary blood flow): unit not given here; conditions: 1 μM
Protocol: Lactate dehydrogenase is an enzyme released in the heart during an ischemic event and is an index of cardiac cell necrosis. In the Grover et al. model, this is measured during reperfusion and an agent which provides for lower release levels of LDH is considered to offer greater cardioprotection since lower LDH indicates a smaller infarct size. Cardiac function is determined using the double product (DP) of heart rate times the left ventricular developed pressure (LVDP) divided by 1,000.
The lower the value for DP before ischemia for a given agent, the more cardiodepressant it is considered to be.
Male Sprague-Dawley rats (450-550 g) were used in all experiments. The rats were anesthetized using 30 mg/kg sodium pentobarbital (i.p.). They were intubated and then treated with i.v. heparin (1000 U/kg). While being mechanically ventilated, their hearts were perfused in situ via retrograde cannulation of the aorta. The hearts were then excised and quickly moved to a Langendorff apparatus where they were perfused with Krebs-Henseleit bicarbonate buffer (112 mM NaCl, 5 mM KCl, 1.2 mMMg SO4, 1 mM KH2 PO4, 1.25 mM CaCl2, 11.5 mM dextrose, and 2 mM pyruvate) at a constant pressure (75 mm Hg). A water filled latex balloon attached to a metal cannula was then inserted into the left ventricle and connected to a Statham pressure transducer for measurement of left ventricular pressure. The hearts were allowed to equilibrate for 15 minutes at which time end diastolic pressure (EDP) was adjusted to 5 mm Hg and this was maintained for 5 minutes. Pre-ischemia or pre-drug function, heart rate and coronary blood flow (extracorporeal electromagnetic flow probe, Carolina Medical Electronics, King, N.C.) were then measured. Cardiac function was determined using the double product of heart rate (HR) times left ventricular developed pressure (LVDP) divided by 1,000.
All of these hearts were treated with their respective drugs or vehicle for ten minutes. At this time, post-drug cardiac function and flow were measured and then the hearts were made globally ischemic by shutting off the buffer perfusion. The ischemia was maintained for 25 minutes at which time reperfusion with nondrug treated buffer was instituted. Reperfusion was maintained for 30 minutes and at this time reperfusion function and flow were again determined.
At the end of the reperfusion period, the reperfusion buffer was sampled for cumulative LDH release as previously described. LDH release was expressed as U/g preischemia heart weight for the 30 minute collection period. LDH release is a sensitive index for loss of cell viability. Determination of the relationship between pre-ischemic, post-drug cardiac function was made by dividing the double product (HR ×LVDP/1000) by the cumulative LDH release.
All data were analyzed using a one way analysis of variance. Multiple comparisons were done using the Duncan procedure. All data are expressed as the mean±SE.
The pre-ischemia DP values are a measure of the cardiodepression of the drug on the healthy cardiac tissue.
The post-ischemia LDH values are a measure of the cardioprotection or anti-ischemic activity of the drug. In this case, lower values indicate greater anti-ischemic activity or greater cardioprotection.
The LDH/DP values are the ratio of cardioprotection to cardiodepression, the lower values indicating a greater selectivity for anti-ischemic activity.
The post-ischemia DP indicates cardiodepression after the ischemic episode and the lower DP values here are indicative of agents which still remained in the cardiac tissue for more than 30 minutes post ischemia. [drawing 16]

[2] = test system: isolated canine cardiac Purkinje fibers; experiment: Calcium-dependent slow response action potential amplitude (SAPA), standard microelectrode techniques; assay type: cell-based; conditions: Canis lupus familiaris, read-out: IC50 in reducing slow response action potential amplitude (SAPA)
Protocol: (§1) The calcium channel blocking and sodium entry blocking activities of compounds of the present invention were tested using standard microelectrode techniques in isolated canine cardiac Purkinje fibers as reported in J. L. Bergey et al., "Antiarrhythmic, hemodynamic, and cardiac electrophysiological evaluation of N-(2,6-dimethylphenyl)-N'-[3-(1-methylethylamino)propyl]-urea), (Wy 42,362)", Arzneim -Forsch, 33:1258, 1983). […] Depression of this parameter indicates depression of calcium entry into cardiac tissue. […] Significant depression of the upstroke velocity (vmax) indicates the blocking of sodium entry into cardiac tissue.

[3] = test system: isolated canine cardiac Purkinje fibers; experiment: Normal action potential parameters incl. upstroke velocity (Vmax; sodium entry), standard microelectrode techniques; assay type: cell-based; conditions: for Vmax (velocity of upstroke): in V/s (unit assumed)
Protocol: as §1

rabbit aorta = experiment: Reduction of tone of rabbit aorta by high potassium (Vasc. Ca^++ Block); assay type: cell-based; conditions: Oryctolagus cuniculus; read-out: IC50 in reducing tone of rabbit aorta by high potassium (Vasc. Ca^++ Block)
From the text: |(SAPA), in reducing maximum upstroke velocity (Vmax) |and in reducing tone of rabbit aorta by high potassium |(Vasc. Ca^++ Block)

[4] = test system: 24 hour post-infarction arrhythmias in dogs; experiment: Antiarrhythmic activity in standard canine arrhythmia model (24 hour post-infarction arrhythmias); assay type: in vivo, dog; conditions: intravenous doses ranging from 6 to 15 mg/kg
Protocol: Antiarrhythmic activity was confirmed for the compound of Example 1 using a standard canine arrhythmia model as reported in J. L. Bergey et al., "Antiarrhythmic, hemodynamic, and cardiac electrophysiological evaluation of N-(2,6-dimethylphenyl)-N'-[3-(1-methylethylamino)propyl]urea), (Wy 42,362)", Arzneim -Forsch, 33:1258, 1983). In dogs suffering from 24 hour post-infarction arrhythmias the compound of Example 1 reversed arrhythmias in 5 out of 5 dogs tested following intravenous doses ranging from 6 to 15 mg/kg.

[5] = Postischemia (30 min.), occlusion 25 minutes, reperfusion 30 minutes

Q: For CN(C)CCCN(C(=O)Cc1ccccc1)c1ccccc1SCc1ccc(Cl)cc1 [Example 1, N-[2-[[(4-Chlorophenyl)methyl]thio]phenyl]-N-[3-(dimethylamino)propyl]benzeneacetamide], which “DP (Double Product, HR x LVDP / 1,000)” value [1, 5] is on record?
A: Its value is 7.

Q: And the “FLOW (coronary blood flow)” value [1, 5]?
A: Its value is 12.

Q: And the “HR (Heart Rate)” value [1, 5]?
A: Its value is 211 beats/min.

Q: And the “LVDP (Left Ventricular Developed Pressure)” value [1, 5]?
A: The value was 34 mmHg.

Q: And the “LDH (Lactate Dehydrogenase Release)” value ([1]; Postischemia, cumulative over 30 min reperfusion, per g preischemia heart weight, lower = greater cardioprotection)?
A: Its value is 12 U/g.

Q: What about the “FLOW (coronary blood flow)” value ([1]; Preischemia (Post Drug)) of the same molecule?
A: The value was 25.

Q: What about the “HR (Heart Rate)” value ([1]; Preischemia (Post Drug)) of the same molecule?
A: Its value is 229 beats/min.

Q: What about the “LVDP (Left Ventricular Developed Pressure)” value ([1]; Preischemia (Post Drug)) of the same molecule?
A: The value was 90 mmHg.

Q: What about the “DP (Double Product, HR x LVDP / 1,000)” value ([1]; Preischemia (Post Drug), lower = more cardiodepressant) of the same molecule?
A: The value was 21.

Q: And the “cardioprotection compared with diltiazem” value ([1]; post-ischemia LDH)?
A: Its value is “comparable to diltiazem in cardioprotection”.

Q: And the LDH/DP ([1]; ratio of cardioprotection to cardiodepression, lower = greater selectivity)?
A: The LDH/DP was 0.55.

Q: What about the pIC50 [2] of the same molecule?
A: The pIC50 was under 5.00.

Q: What about the “APD 50 (action potential duration @ 50% repolarization)” value ([3]; 1 × 10^-5) of the same molecule?
A: The value was 160 ± 3.

Q: And the “APD90 (action potential duration @ 90% repolarization)” value ([3]; 1 × 10^-5)?
A: Its value is 320 ± 3.

Q: What about the “PP (peak potential)” value ([3]; 1 × 10^-5) of the same molecule?
A: Its value is 11 ± 2.

Q: And the “RP (resting potential)” value ([3]; 1 × 10^-5)?
A: Its value is 89 ± 1.

Q: And the “Vmax (velocity of upstroke)” value ([3]; 1 × 10^-5)?
A: The value was 203 ± 19.

Q: What about the “APD 50 (action potential duration @ 50% repolarization)” value ([3]; 1 × 10^-6) of the same molecule?
A: Its value is 219 ± 3.

Q: What about the “APD90 (action potential duration @ 90% repolarization)” value ([3]; 1 × 10^-6) of the same molecule?
A: Its value is 320 ± 3.

Q: And the “PP (peak potential)” value ([3]; 1 × 10^-6)?
A: Its value is 35 ± 1.

Q: And the “RP (resting potential)” value ([3]; 1 × 10^-6)?
A: The value was 94 ± 1.

Q: And the “Vmax (velocity of upstroke)” value ([3]; 1 × 10^-6)?
A: Its value is 443 ± 7.

Q: What about the “APD 50 (action potential duration @ 50% repolarization)” value ([3]; 3 × 10^-6) of the same molecule?
A: Its value is 154 ± 3.

Q: What about the “APD90 (action potential duration @ 90% repolarization)” value ([3]; 3 × 10^-6) of the same molecule?
A: The value was 305 ± 4.

Q: And the “PP (peak potential)” value ([3]; 3 × 10^-6)?
A: Its value is 28 ± 1.

Q: What about the “RP (resting potential)” value ([3]; 3 × 10^-6) of the same molecule?
A: Its value is 89 ± 1.

Q: What about the “Vmax (velocity of upstroke)” value ([3]; 3 × 10^-6) of the same molecule?
A: Its value is 375 ± 11.

Q: And the pIC50 ([3]; Canis lupus familiaris, purkinje, sodium entry, read-out: IC50 in reducing maximum upstroke velocity (Vmax))?
A: Its pIC50 is 5.17.

Q: What about the pIC50 (rabbit aorta) of the same molecule?
A: Its pIC50 is 5.80.

Q: And the “reversed arrhythmias (dogs tested)” value [4]?
A: The value was 5 out of 5.
